Assay: Solubility in 90 g/L salt solution at 50° C.
Type: physicochemical
Method: 9% w/v solutions of Dyestuff (Ia) and of Dyestuff (5) were prepared at 50° C. and salt added to produce a 90 g/L salt solution. After 30 mins, 4.2% of Dyestuff (Ia) remained in solution whilst only 2.8% of Dyestuff (5) remained in solution. Thus Dyestuff (Ia) is 50% more soluble in 90 g/L salt at 50° C. than Dyestuff (5). This factor can be crucial as dyeings are carried out at high salt concentrations and better salt solubility can avoid problems with unlevel exhaustion onto the fibre from an exhaust dyebath.

Compound: Cc1ccc(Nc2nc(Cl)nc(Nc3ccc(/N=N/c4c(N)c(S(=O)(=O)O)cc5cc(S(=O)(=O)O)cc(O)c45)c(S(=O)(=O)O)c3)n2)c(Nc2nc(Cl)nc(Nc3ccc(/N=N/c4c(N)c(S(=O)(=O)O)cc5cc(S(=O)(=O)O)cc(O)c45)c(S(=O)(=O)O)c3)n2)c1 [Dyestuff (Ia)]
- dyestuff remained in solution (9% w/v solution prepared at 50° C., salt added to give 90 g/L salt solution, after 30 mins): 4.2%
- more soluble than Dyestuff (5) (in 90 g/L salt at 50° C., relative to Dyestuff (5)): 50%
